From PMC9401491, “The Novel Nucleoside Analogue ProTide NUC-7738 Overcomes Cancer Resistance Mechanisms In Vitro and in a First-In-Human Phase I Clinical Trial” (Clinical Cancer Research, 2021)
Like-named read-outs stand apart in the source and are kept apart here.

Tests used:
[1] = system: SK-OV3; experiment: MTT cell viability, SK-OV3; format: cell-based; details: Homo sapiens, SK-OV-3, 48 h
Procedure: (§1) Cells (10^4) were seeded into 96-well plates and then treated with NUC-7738 (lot 5132/E00393/119) or 3′-dA (cordycepin, catalog no. C3394, lot 067M4182, Sigma) for 48 hours. One and a half milligrams per milliliter MTT (catalog no. M6494, Invitrogen) in a 1:1 ratio was added to cell culture media. After a 2-hour incubation at 37°C, media was removed and 70 μl of isopropanol was added. Optical densities at 570 nm were measured using POLARstar Omega plate reader. Readouts were normalized and IC50 values were calculated using a nonlinear regression model in Graphpad prism (v8.3.0). Each biological replicate (at least 3) was performed in 4 technical replicates to calculate the average IC50 value. To measure apoptosis, the Guava NexinReagent (Luminex Corp.) was used following manufacturer's instructions. Fluorescence staining was measured with an automated 96-well Guava easyCyte Flow Cytometer (Luminex Corp.).

[2] = system: NF-κB; experiment: NF-κB SEAP reporter and p65 fractionation in THP-1 cells; format: cell-based
Procedure: Cells were harvested and lyzed using RIPA lysis and extraction buffer (Thermo Scientific) following manufacturer's protocol. Twenty to 30 μg of total protein lysates was loaded on Mini-PROTEAN TGX precast gels (Bio-Rad). Separated proteins were transferred to a polyvinylidene difluoride (PVDF) membrane using Trans-Blot Turbo Transfer System (Bio-Rad) followed by incubation with primary and horseradish peroxidase (HRP)–conjugated secondary antibodies [anti-mouse, catalog no. 7076S, Cell Signaling Technology (CST) or anti-rabbit, catalog no. 7074S, CST] and ECL Prime Western blotting (GE Healthcare) detection. For fractionation, cells were grown in 10-cm tissue culture plates and treated with 30 or 60 μmol/L of 3′-dA or NUC-7738 for 6 hours. Cells were grown in 10-cm tissue culture plates and fractionated using the Nuclear Extraction Kit (Abcam) following manufacturer's instructions. Twenty-five micrograms of each fraction was used for Western blot (WB) detection. NF-κB p65 antibody (catalog no. 8242, CST), nuclear marker Lamin B1 (catalog no. ab16048, Abcam), cytosolic GAPDH (catalog no. 97166, CST), cleaved PARP (catalog no. 9541, CST), and Actin (MAB1501, Merck) were used.
Figure 5. […] C, NF-κB activity was measured using the SEAP reporter gene assay in THP-1 cells. […] SEAP production as result of NF-κB activity was measured using the QuantiBlue colorimetric enzyme assay. […]

[3] = system: CAKI-1; experiment: MTT cell viability, CAKI-1; format: cell-based; details: Homo sapiens, CAKI-1, 48 h
Procedure: as §1

[4] = system: NCI-786; experiment: MTT cell viability, NCI-786; format: cell-based; details: 48 h
Procedure: as §1

[5] = system: HAP1 cells; experiment: MTT cell viability, HAP1 cells; format: cell-based; details: Homo sapiens
Procedure: as §1

[6] = system: cancer cell lines; experiment: IC50 across a wide set of cancer cell lines; format: cell-based
Procedure: as §1

[7] = system: A498; experiment: MTT cell viability, A498; format: cell-based; details: Homo sapiens, A498, 48 h
Procedure: as §1

[8] = system: Gastric or cervical cancer cells; experiment: Apoptosis by cleaved PARP Western blot; format: cell-based; details: 50 and 100 μmol/L, 24 hours
Procedure: as §1
Cells were harvested and lyzed using RIPA lysis and extraction buffer (Thermo Scientific) following manufacturer's protocol. Twenty to 30 μg of total protein lysates was loaded on Mini-PROTEAN TGX precast gels (Bio-Rad). Separated proteins were transferred to a polyvinylidene difluoride (PVDF) membrane using Trans-Blot Turbo Transfer System (Bio-Rad) followed by incubation with primary and horseradish peroxidase (HRP)–conjugated secondary antibodies [anti-mouse, catalog no. […]

[9] = parameters: method as in PMID 22833171, PMID 24419340; details: human serum; cited from earlier work
[10] = system: 501MEL; experiment: MTT cell viability, 501MEL; format: cell-based; details: 48 h
Procedure: as §1

[11] = system: UO-31; experiment: MTT cell viability, UO-31; format: cell-based; details: Homo sapiens, UO-31, 48 h
Procedure: as §1

[12] = NuTide:701 first-in-human phase I study; format: in vivo
Procedure: A Safety Study of NUC-7738 in Patients with Advanced Solid Tumours or Lymphoma, ClinicalTrials number: NCT03829254. Approved by Oxford C Ethics Committee ref 18/SC/0628.
This study is currently ongoing at three centers in the United Kingdom: Edinburgh, Newcastle, and Oxford. As of June 1, 2021, 28 patients with advanced cancers have been enrolled and received escalating doses of 14–900 mg/m^2 (intravenous infusion from 30–120 minutes) once weekly until dose-limiting toxicity or disease progression occurs. Intrapatient dose escalation ensures those starting at lower dose levels of NUC-7738 are continuously moved to higher doses once safety has been established. The most common cancers to be included are immunotherapy-resistant melanoma (n = 8), colorectal cancer (n = 3), and gastric and lung cancer (n = 2 each). […] A posttreatment biopsy was taken from a patient with melanoma and compared with their archived specimen collected prior to enrolling in the clinical trial. […] Transcriptional profiling of the specimens using RNA-seq identified more than 1,069 genes which were at least 2-fold differentially expressed after treatment with NUC-7738 (Fig. 6C and Supplementary Fig. S6A–C).

[13] = parameters: method as in PMID 22833171, PMID 24419340; details: rat serum; cited from earlier work
[14] = system: AGS; experiment: MTT cell viability, AGS; format: cell-based; details: Homo sapiens, 48 h
Procedure: as §1

C[C@H](NP(=O)(OC[C@@H]1C[C@@H](O)[C@H](n2cnc3c(N)ncnc32)O1)Oc1ccccc1)C(=O)OCc1ccccc1 (stereo partly drawn) [NUC-7738, 3′-deoxyadenosine-5′-O-phenyl-(benzyloxy-L-alaninyl)-phosphate]
IC50 [1]: 16.6 µM | nuclear translocation of NF-κB ([2]; NF-κB THP1 reporter cell line, LPS, fractionation and Western blot): a reduction in the nuclear translocation of NF-κB | NF-κB activation ([2]; THP-1 SEAP reporter, LPS induced): significantly reduced NF-κB activation | IC50 [3]: 33 µM | IC50 [4]: 49.5 µM | IC50 ([5]; HAP1, 48 h): 7.32 µM | IC90 ([5]; HAP1, 48 h): 54.2 µM | IC50 ([5]; HAP1, read-out: IC50 concentration used for RNA-seq): 7.6 µM | IC90 ([5]; HAP1, read-out: IC90 concentration used for RNA-seq): 125 µM | IC50 ([6]; read-out: IC50 in the low μM range): < 10 µM | IC50 ([6]; read-out: mean IC50): 18.8 µM | IC50 [7]: 48.5 µM | apoptotic cell death, cleaved PARP-1 [8]: induced apoptotic cell death | half-life in serum [9]: 7.07 h | IC50 [10]: 10.9 µM | IC50 [11]: 42.2 µM | tolerability ([12]; patients with advanced cancers, 14–900 mg/m^2 iv once weekly): well tolerated with no dose-limiting toxicities reported | plasma PK profile ([12]; patients, escalating doses): dose-proportional increase in Cmax and AUC | half-life in serum [13]: less than 2 minutes | IC50 [14]: 11.2 µM
